The values that follow come from patent US8198447B2, “Fused tricyclic compound having aldose reductase inhibitory activity” (National University Corporation University of Toyama, priority 2007, dated 2012).

Test [1] concerns the target Aldose reductase II (Homo sapiens, UniProt P15121). The test is described as follows: Aldose reductase inhibitory activity (NADPH decrease at 340 nm, DL-glyceraldehyde substrate). The class given is biochemical. The settings on record: pH 6.2, 100 mM DL-glyceraldehyde, 1.5 mM NADPH. The method, then: A reaction solution containing a 200 mM of a phosphate buffer solution (pH 6.2), 1.5 mM of reduced nicotinamide adenine dinucleotide phosphate (NADPH), 1 mg/ml of bovine serum albumin, a test compound, and 100 mM of DL-glyceraldehyde as a substrate was prepared. Aldose reductase II (5.1×10^−1 unit/ml) was added to the solution to initiate the reaction, and the amount of NADPH reduced by the reaction was measured at an absorption wavelength of 340 nm using a spectrophotometer.

Test [2] relates to mouse leukemia adriamycin sensitive strain P388/S. The test is described as follows: Cancer cell sensitivity test (MTT). The class given is cell-based. The settings on record: P388/S cells, test compound 25 μM, 44 hours, MTT-formazan at 540 nm; for inhibition at 25 µM: Mus musculus, read-out: INHIBITORY RATE (%). The method, then:
Cells of mouse leukemia adriamycin sensitive strain P388/S were cultured in an RPMI1640 culture medium (5% fetal bovine serum, […] 2-mercaptoethanol, 30 μM kanamycin) under conditions of 37° C. and 5% CO2, and used for a compound sensitivity test.
The cell suspension (1.35×10^4 cells/ml) was added to a 96 well plate, 100 μl per well.
After culturing under the conditions of 37° C. and 5% CO2 for 16 hours, a solution of the test compound dissolved in DMSO to a concentration of 25 μM was added, followed by continuation of culture for a further 44 hours, while only DMSO was added to a control to continue the culture.
After culturing, […] (PBS, pH 7.4), was added in an amount of 25 μl/well, followed by incubation for four hours to produce MTT-formazan.
After removing supernatant by aspiration, 200 μl of DMSO was added and the absorbance of MTT-formazan at 540 nm was measured.

In general, IC50 refers to the concentration that gives 50% inhibition.

Regarding `O=C(O)Cn1c2c(c3cc4c(cc31)CCCC4)CCSC2=O` [Compound 65, (1-Oxo-3,4,6,7,8,9-hexahydro-1H-2-thia-11-azabenzo[b]fluoren-11-yl)acetic acid], half-maximal inhibition in test [1] (IC50) required 3.4 µM.

Compound `O=C(O)Cn1c2c(c3ccc(Cl)cc31)CCN(Cc1ccccc1)C2=S` [Compound 38, (2-Benzyl-7-chloro-1-thioxo-1,2,3,4-tetrahydro-β-carbolin-9-yl)acetic acid] came in with an IC50 in test [1] of 3.7 µM. The IC50 values of the last two compounds are within 1.5-fold of each other.

`O=C(O)Cn1c2c(c3ccccc31)CCN(Cc1cccs1)C2=S` [Compound 36, [2-(2-Thienylmethyl)-1-thioxo-1,2,3,4-tetrahydro-β-carbolin-9-yl]acetic acid] showed an IC50 in test [1] of 7.6 µM. Against the preceding compound, the IC50 is about 2.1-fold higher.

In test [1], `O=C(O)Cn1c2c(c3ccccc31)CCN(C(=O)c1ccccc1)C2=O` [Compound 55, (2-Benzoyl-1-oxo-1,2,3,4-tetrahydro-β-carbolin-9-yl)acetic acid] had an IC50 of 53.1 µM. Against the preceding compound, the IC50 is about 7-fold higher.

In the case of `CC(C)(C)c1ccc2c(c1)c1c(n2CC(=O)O)C(=O)SCC1` [Compound 59, (6-tert-Butyl-1-oxo-3,4-dihydro-1H-2-thia-9-azafluoren-9-yl)acetic acid], the IC50 in test [1] came to 1.4 µM.

For `O=C(O)COc1ccc2c(c1)c1c(n2CC(=O)O)C(=S)N(Cc2ccccc2)CC1` [Compound 42, (2-Benzyl-6-carboxymethoxy-1-thioxo-1,2,3,4-tetrahydro-β-carbolin-9-yl)acetic acid], the IC50 in test [1] was 2.6 µM.

In turn, `O=C(O)Cn1c2c(c3ccccc31)CCN(C(=O)c1ccc(Br)cc1F)C2=O` [Compound 51, [2-(2-Fluoro-4-bromobenzoyl)-1-oxo-1,2,3,4-tetrahydro-β-carbolin-9-yl]acetic acid] had an IC50 in test [1] of 68.3 µM.

`O=C(O)Cn1c2c(c3cc(F)ccc31)CCN(Cc1ccccc1F)C2=O` [Compound 25, [2-(2-Fluorophenylmethyl)-6-fluoro-1-oxo-1,2,3,4-tetrahydro-β-carbolin-9-yl]acetic acid] displayed an IC50 in test [1] of 48.6 µM. This IC50 and that of the compound before are within 1.5-fold of each other.

Turning to `CC(C)(C)OC(=O)Cn1c2c(c3cc(F)ccc31)CCN(Cc1ccccc1)C2=S` [Compound 23, (2-benzyl-6-fluoro-1-thioxo-1,2,3,4-tetrahydro-β-carbolin-9-yl)acetic acid tert-butyl ester], in test [2], the “INHIBITORY RATE (%)” value is recorded as 92.9%. The compound further came in with an IC50 in test [1] of 5.6 µM.

In test [1], `O=C(O)Cn1c2c(c3cc(Cl)ccc31)CCN(Cc1ccccc1)C2=S` [Compound 27, (2-Benzyl-6-chloro-1-thioxo-1,2,3,4-tetrahydro-β-carbolin-9-yl)acetic acid] gave an IC50 of 5 µM.

For `O=C(O)Cn1c2c(c3ccc(Cl)cc31)CCN(Cc1ccc(Br)cc1F)C2=S` [Compound 37], in test [1], half-maximal inhibition (IC50) required 27.4 µM. Against the preceding compound, the IC50 is about 5.5-fold higher.

Take `Cc1cc(C)c2c3c(n(CC(=O)O)c2c1)C(=O)SCC3` [Compound 63, (5,7-Dimethyl-1-oxo-3,4-dihydro-1H-2-thia-9-azafluoren-9-yl)acetic acid]: in test [1], the IC50 stood at 5.9 µM.

`O=C(O)Cn1c2c(c3ccccc31)CCN(Cc1ccco1)C2=S` [Compound 35, [2-(2-Furanylmethyl)-1-thioxo-1,2,3,4-tetrahydro-β-carbolin-9-yl]acetic acid] returned an IC50 in test [1] of 16.3 µM.

In turn, `O=C(O)Cn1c2c(c3ccccc31)CCN(C(=O)c1ccc(F)cc1F)C2=O` [Compound 49, [2-(2,4-Difluorobenzoyl)-1-oxo-1,2,3,4-tetrahydro-β-carbolin-9-yl]acetic acid] displayed an IC50 in test [1] of 45.3 µM.

As for `O=C(O)Cn1c2c(c3ccccc31)CCN(C(=O)c1cc(F)cc(F)c1)C2=O` [Compound 50, [2-(3.5-Difluorobenzoyl)-1-oxo-1,2,3,4-tetrahydro-β-carbolin-9-yl]acetic acid], the IC50 in test [1] stood at 34.5 µM. The IC50 values of the last two compounds are within 1.5-fold of each other.

As to `O=C(O)Cn1c2c(c3ccccc31)CCN(c1ccccc1)C2=S` [Compound 33, (2-Phenyl-1-thioxo-1,2,3,4-tetrahydro-β-carbolin-9-yl)acetic acid], the IC50 in test [1] was 36.3 µM.

For `O=C(O)Cn1c2c(c3cc(Cl)ccc31)CCOC2=S` [Compound 31, (6-chloro-1-thioxo-3,4-dihydro-1H-pyrano[3,4-b]indol-9-yl) acetic acid], the IC50 in test [1] is 11.1 µM.

As for `O=C(O)Cn1c2c(c3c(F)cc(F)cc31)CCN(Cc1ccc(Br)cc1F)C2=S` [Compound 39], the midpoint of inhibition in test [1], the IC50, lay at 21.1 µM. Compared with the last compound, the IC50 is about 1.9-fold higher.

Compound `Cc1ccc2c(c1)c1c(n2CC(=O)O)C(=O)SCC1` [Compound 58, (6-Methyl-1-oxo-3,4-dihydro-1H-2-thia-9-azafluoren-9-yl)acetic acid] returned an IC50 in test [1] of 1.6 µM.

Turning to `COc1cc(C(=O)N2CCc3c(n(CC(=O)O)c4ccccc34)C2=O)cc(OC)c1OC` [Compound 53, [2-(3,4,5-Trimetoxybenzoyl)-1-oxo-1,2,3,4-tetrahydro-β-carbolin-9-yl]acetic acid], it took 46.8 µM to reach half-maximal inhibition in test [1] (IC50).

Consider `O=C(O)Cn1c2c(c3c(Cl)cccc31)CCSC2=O` [Compound 64, (5-Chloro-1-oxo-3,4-dihydro-1H-2-thia-9-azafluoren-9-yl)acetic acid], for which the midpoint of inhibition in test [1], the IC50, lay at 3.6 µM. This IC50 is about 13-fold lower than that of the compound before.

`COc1ccc2c(c1)c1c(n2CC(=O)O)C(=S)N(Cc2ccccc2)CC1` [Compound 29, (2-Benzyl-6-methoxy-1-thioxo-1,2,3,4-tetrahydro-β-carbolin-9-yl)acetic acid] registered an IC50 in test [1] of 5.7 µM.

In test [1], `O=C(O)Cn1c2c(c3cc(Br)ccc31)CCN(Cc1ccccc1)C2=S` [Compound 32, (2-Benzyl-6-bromo-1-thioxo-1,2,3,4-tetrahydro-β-carbolin-9-yl)acetic acid] registered an IC50 of 6.2 µM.

On to `O=C(O)Cn1c2c(c3ccccc31)CCN(C(=O)c1cc(O)c(O)c(O)c1)C2=O` [Compound 54, [2-(3,4,5-Trihydroxybenzoyl)-1-oxo-1,2,3,4-tetrahydro-β-carbolin-9-yl]acetic acid], for which, in test [1], half-maximal inhibition (IC50) was put at 48 µM.

`O=C(O)Cn1c2c(c3ccccc31)CCN(C(=O)c1ccc(Br)cc1)C2=O` [Compound 47, [2-(4-Bromobenzoyl)-1-oxo-1,2,3,4-tetrahydro-β-carbolin-9-yl]acetic acid]: the IC50 in test [1] turned out to be 34.6 µM.

For the compound `O=C(O)Cn1c2c(c3ccccc31)CCN(C(=O)c1cc(F)c(F)c(F)c1)C2=O` [Compound 52, [2-(3,4,5-Trifluorobenzoyl)-1-oxo-1,2,3,4-tetrahydro-β-carbolin-9-yl]acetic acid], in test [2], the inhibition at 25 µM stood at 34.7%. Further, in test [1], 55.3 µM corresponded to half-maximal inhibition (IC50).

With `O=C(O)Cn1c2c(c3cc(F)ccc31)CCN(Cc1ccccc1)C2=O` [Compound 22, (2-Benzyl-6-fluoro-1-oxo-1,2,3,4-tetrahydro-β-carbolin-9-yl)acetic acid], the IC50 in test [1] came out at 51.5 µM.

With `O=C(O)Cn1c2c(c3c4c(ccc31)CCCC4)CCSC2=O` [Compound 66, (8-Oxo-1,3,4,8,10,11-hexahydro-2H-9-thia-7-azabenzo[c]fluoren-7-yl)acetic acid], half-maximal inhibition in test [1] (IC50) required 1 µM.

For `O=C(O)Cn1c2c(c3cc(Cl)ccc31)CCSC2=O` [Compound 56, (6-chloro-1-oxo-3,4-dihydro-1H-2-thia-9-azafluoren-9-yl)acetic acid], in test [1], the IC50 came to 1.1 µM.

In test [1], `O=C(O)Cn1c2c(c3cc(Cc4ccccc4)ccc31)CCSC2=O` [Compound 60, (6-Benzyl-1-oxo-3,4-dihydro-1H-2-thia-9-azafluoren-9-yl)acetic acid] gave an IC50 of 3.6 µM.

Regarding `COc1ccc(C(=O)N2CCc3c(n(CC(=O)O)c4ccccc34)C2=O)cc1` [Compound 48], the IC50 in test [1] came out at 35.8 µM.

As to `CCOC(=O)Cn1c2c(c3cc(F)ccc31)CCN(Cc1ccccc1)C2=O` [Compound 22a, (2-Benzyl-6-fluoro-1-oxo-1,2,3,4-tetrahydro-β-carbolin-9-yl)acetic acid ethyl ester], the inhibition at 25 µM in test [2] turned out to be 34.5%.

With `O=C(O)Cn1c2c(c3ccccc31)CCSC2=O` [Compound 57, (1-Oxo-3,4-dihydro-1H-2-thia-9-azafluoren-9-yl)acetic acid], the IC50 in test [1] turned out to be 2.8 µM.

`O=C(O)Cn1c2c(c3ccccc31)CCN(CC1CCCCC1)C2=S` [Compound 34, (2-Cyclohexylmethyl-1-thioxo-1,2,3,4-tetrahydro-β-carbolin-9-yl)acetic acid]: in test [1], half-maximal inhibition (IC50) required 7.2 µM. This IC50 is about 2.6-fold higher than that of the compound before.

With `O=C(O)Cn1c2c(c3cc(O)ccc31)CCN(Cc1ccccc1)C2=S` [Compound 40, (2-Benzyl-6-hydroxy-1-thioxo-1,2,3,4-tetrahydro-β-carbolin-9-yl)acetic acid], the IC50 in test [1] stood at 4.8 µM. Compared with the last compound, the IC50 is about 1.5-fold lower.

`COc1ccc2c(c1)c1c(n2CC(=O)O)C(=O)SCC1` [Compound 61, (6-Methoxy-1-oxo-3,4-dihydro-1H-2-thia-9-azafluoren-9-yl)acetic acid] registered an IC50 in test [1] of 2.6 µM. This IC50 is about 1.8-fold lower than that of the compound before.

With `O=C(O)Cn1c2c(c3ccccc31)CCN(C(=O)c1ccc(F)cc1)C2=O` [Compound 46, [2-(4-fluorobenzoyl)-1-oxo-1,2,3,4-tetrahydro-β-carbolin-9-yl)acetic acid], 21.7 µM corresponded to half-maximal inhibition in test [1] (IC50).

`O=C(O)Cn1c2c(c3cc(C4CCCCC4)ccc31)CCSC2=O` [Compound 62, (6-Cyclohexyl-1-oxo-3,4-dihydro-1H-2-thia-9-azafluoren-9-yl)acetic acid] yielded an IC50 in test [1] of 5.6 µM.
